Source: the supplement of paper PMC10307832

Assays:
Adavosertib + Foretinib = compound: C=CCn1c(=O)c2cnc(Nc3ccc(N4CCN(C)CC4)cc3)nc2n1-c1cccc(C(C)(C)O)n1 [Adavosertib] + COc1cc2c(Oc3ccc(NC(=O)C4(C(=O)Nc5ccc(F)cc5)CC4)cc3F)ccnc2cc1OCCCN1CCOCC1 [Foretinib] (partner 0.25 µM); experiment: relative viability (nuclei count vs DMSO), 5 days (fraction); higher = more cells survive
In short: (§1)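 Five library-drug doses in √10 steps were combined with a fixed anchor-drug dose, or a single drug was given alone, by pin tool to lung cancer cell lines in 1536-well plates the day after seeding. Nuclei were stained and counted after 5 days. Relative viability is the nuclei count in treated wells over that in vehicle wells, taken as the median of duplicate plates.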

Nelarabine + Tozasertib = compound: COc1nc(N)nc2c1ncn2[C@@H]1O[C@H](CO)[C@@H](O)[C@@H]1O [Nelarabine] + Cc1cc(Nc2cc(N3CCN(C)CC3)nc(Sc3ccc(NC(=O)C4CC4)cc3)n2)n[nH]1 [Tozasertib] (partner 0.1 µM); experiment: as above
In short: as §1

## NCI-H441
Adavosertib + Foretinib; first compound 0.01 µM
  relative viability: 1.04
Adavosertib + Foretinib; first compound 0.03162 µM
  relative viability: 0.964
Adavosertib + Foretinib; first compound 0.1 µM
  relative viability: 1.09
Adavosertib + Foretinib; first compound 0.3162 µM
  relative viability: 0.916
Nelarabine + Tozasertib; first compound 0.01 µM
  relative viability: 0.691
Nelarabine + Tozasertib; first compound 0.03162 µM
  relative viability: 0.704
Nelarabine + Tozasertib; first compound 0.1 µM
  relative viability: 0.58
Nelarabine + Tozasertib; first compound 0.3162 µM
  relative viability: 0.61
Nelarabine + Tozasertib; first compound 1 µM
  relative viability: 0.697
